Values after ≈ are worked out from the molar mass of the structure shown.
How the values were obtained:
[1] = system: E. coli NCTC 13441 (UPEC); assay: MIC broth microdilution; type: cell-based, Escherichia coli; conditions: for MIC: Escherichia coli, NCTC13441
Summary of the method: (§1)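 Planktonic cells were tested by CLSI broth microdilution in cation-adjusted Müller-Hinton broth, with compounds two-fold serially diluted to final concentrations of 0.39-200 μM (DMSO at most 2% final). After 20-24 h at 37° C in ambient air, MIC was taken as the lowest concentration inhibiting growth.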

[2] = system: Acinetobacter baumannii ATCC 17978 (AB); assay: MIC broth microdilution; type: cell-based; conditions: for MIC: ATCC17978
Summary of the method: as §1

[3] = system: Klebsiella pneumoniae ATCC 10031 (KP2); assay: MIC broth microdilution; type: cell-based; conditions: ATCC10031
Summary of the method: (§2)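 Growth inhibition scored after 20-24 h at 37 °C in ambient air, in cation-adjusted Müller-Hinton broth; MIC is the lowest inhibitory concentration. Compounds serially diluted two-fold over 0.39-200 μM final (DMSO up to 2%), per CLSI microdilution guidelines.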

[4] = system: Pseudomonas aeruginosa ATCC 33359 (PA); assay: MIC broth microdilution; type: cell-based; conditions: for MIC: ATCC33359
Summary of the method: as §1

[5] = system: Staphylococcus aureus ATCC 35556 (SA); assay: MIC broth microdilution; type: cell-based; conditions: for MIC: ATCC35556
Summary of the method: as §1

[6] = system: Klebsiella pneumoniae ATCC 51504 (KP4); assay: MIC broth microdilution; type: cell-based; conditions: ATCC51504
Summary of the method: as §1

[7] = system: Escherichia coli K12 (EC); assay: MIC broth microdilution; type: cell-based
Summary of the method: as §1

[8] = system: K. pneumoniae H154680676 (KP5); assay: MIC broth microdilution; type: cell-based, Klebsiella pneumoniae; conditions: Klebsiella pneumoniae
Summary of the method: as §2

[9] = system: K. pneumoniae ATCC 700603 (KP3); assay: MIC broth microdilution; type: cell-based, Klebsiella pneumoniae; conditions: Klebsiella pneumoniae, ATCC700603
Summary of the method: as §2

[10] = system: K. pneumoniae H154640784 (KP7); assay: MIC broth microdilution; type: cell-based, Klebsiella pneumoniae; conditions: Klebsiella pneumoniae
Summary of the method: as §2

[11] = system: K. pneumoniae H151440671 (KP10); assay: MIC broth microdilution; type: cell-based, Klebsiella pneumoniae; conditions: Klebsiella pneumoniae
Summary of the method: as §2

[12] = system: K. pneumoniae NCTC 13438 (KP1); assay: MIC broth microdilution; type: cell-based, Klebsiella pneumoniae; conditions: Klebsiella pneumoniae, NCTC13438
Summary of the method: as §2

[13] = system: K. pneumoniae H154300688 (KP9); assay: MIC broth microdilution; type: cell-based, Klebsiella pneumoniae; conditions: Klebsiella pneumoniae
Summary of the method: as §2

[14] = system: K. pneumoniae H154600588 (KP8); assay: MIC broth microdilution; type: cell-based, Klebsiella pneumoniae; conditions: Klebsiella pneumoniae
Summary of the method: as §2

[15] = system: K. pneumoniae H154020667 (KP6); assay: MIC broth microdilution; type: cell-based, Klebsiella pneumoniae; conditions: Klebsiella pneumoniae
Summary of the method: as §2

[16] = system: human hepatocarcinoma cell line ATCC HB-8065 (HepG2); assay: Human cell viability (CellTiter-Glo); type: cell-based; conditions: Homo sapiens; HepG2 cells, 24 h incubation, CellTiter-Glo luminescence, 0.2-100 μM; read-out: IC50 values against the HepG2 cell line
Summary of the method: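 Cytotoxicity was read as CellTiter-Glo luminescence after 24 h compound exposure at 37° C., 5% CO2. Final concentrations spanned 0.2-100 μM in two-fold steps, in 1% FBS MEM with 1% DMSO, on cells plated a day earlier at 20,000/well. IC50 came from 4-parameter logistic regression.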

[17] = system: Enterobacter cloacae DSM 30054 (Ed); assay: MIC broth microdilution; type: cell-based
Summary of the method: as §2

[18] = system: Serratia marcescens SL1344 (Sm); assay: MIC broth microdilution; type: cell-based
Summary of the method: as §1

[19] = system: Salmonella typhimurium XNAA5 (St); assay: MIC broth microdilution; type: cell-based
Summary of the method: as §1

| SMILES | MIC [1] [µM] | MIC [2] [µM] | MIC [3] [µM] | MIC [4] [µM] | MIC [5] [µM] | MIC [6] [µM] | MIC [7] [µM] | MIC [8] [µM] | MIC [9] [µM] | MIC [10] [µM] | MIC [11] [µM] | MIC [12] [µM] | MIC [13] [µM] | MIC [14] [µM] | MIC [15] [µM] | IC50 [16] [µM] | further results |
| --- | --- | --- | --- | --- | --- | --- | --- | --- | --- | --- | --- | --- | --- | --- | --- | --- | --- |
| Cc1cc(-c2[nH]c(N)nc2-c2cc(F)c3c(c2)NCCO3)ccn1 [Example 49, 4-(8-Fluoro-3,4-dihydro-2H-benzo[b][1,4]oxazin-6-yl)-5-(2-methylpyridin-4-yl)-1H-imidazol-2-amine] | 1 to 10 (≈ 0.325 to 3.25 µg/mL) | > 100 | ≤ 1 | > 100 | > 100 | ≤ 1 | ≤ 1 | ≤ 1 | 1 to 10 (≈ 0.325 to 3.25 µg/mL) | 1 to 10 (≈ 0.325 to 3.25 µg/mL) | 1 to 10 (≈ 0.325 to 3.25 µg/mL) | 1 to 10 (≈ 0.325 to 3.25 µg/mL) | 1 to 10 (≈ 0.325 to 3.25 µg/mL) | 1 to 10 (≈ 0.325 to 3.25 µg/mL) | ≤ 1 | > 100 | – |
| NC[C@H]1O[C@H](O[C@H]2[C@H](O)[C@@H](O[C@H]3O[C@H](CO)[C@@H](O)[C@H](N)[C@H]3O)[C@H](N)C[C@@H]2N)[C@H](N)C[C@@H]1O [TOB] | – | – | – | – | – | – | – | – | – | – | – | – | – | – | – | – | MIC UPEC [1]: D (a MIC of over 100 is assigned the letter D); MIC Ecl [17]: C (a MIC of from 10 to 100 is assigned the letter C); MIC AB [2]: B (a MIC of from 1 to 10 is assigned the letter B); MIC Sm [18]: A (an MIC (μM) of less or equal to 1 is assigned the letter A); MIC St [19]: B (a MIC of from 1 to 10 is assigned the letter B); MIC PA [4]: B (a MIC of from 1 to 10 is assigned the letter B); MIC SA [5]: B (a MIC of from 1 to 10 is assigned the letter B); MIC EC [7]: B (a MIC of from 1 to 10 is assigned the letter B) |
| Cc1cc(-c2[nH]c(N)nc2-c2cc3c(cc2F)OCCN3)ccn1 [Example 52, 4-(7-Fluoro-3,4-dihydro-2H-benzo[b][1,4]oxazin-6-yl)-5-(2-methylpyridin-4-yl)-1H-imidazol-2-amine] | ≤ 1 | > 100 | ≤ 1 | > 100 | > 100 | ≤ 1 | ≤ 1 | ≤ 1 | 1 to 10 (≈ 0.325 to 3.25 µg/mL) | 1 to 10 (≈ 0.325 to 3.25 µg/mL) | ≤ 1 | 1 to 10 (≈ 0.325 to 3.25 µg/mL) | 1 to 10 (≈ 0.325 to 3.25 µg/mL) | 1 to 10 (≈ 0.325 to 3.25 µg/mL) | ≤ 1 | > 100 | – |

Now from value to molecule, other results behind:

| MIC [1] [µM] | MIC [2] [µM] | MIC [3] [µM] | MIC [4] [µM] | MIC [5] [µM] | MIC [6] [µM] | MIC [7] [µM] | MIC [8] [µM] | MIC [9] [µM] | MIC [10] [µM] | MIC [11] [µM] | MIC [12] [µM] | MIC [13] [µM] | MIC [14] [µM] | MIC [15] [µM] | IC50 [16] [µM] | SMILES | further results |
| --- | --- | --- | --- | --- | --- | --- | --- | --- | --- | --- | --- | --- | --- | --- | --- | --- | --- |
| 1 to 10 (≈ 0.361 to 3.61 µg/mL) | > 100 | ≤ 1 | > 100 | > 100 | 1 to 10 (≈ 0.361 to 3.61 µg/mL) | ≤ 1 | ≤ 1 | 1 to 10 (≈ 0.361 to 3.61 µg/mL) | 1 to 10 (≈ 0.361 to 3.61 µg/mL) | 1 to 10 (≈ 0.361 to 3.61 µg/mL) | 1 to 10 (≈ 0.361 to 3.61 µg/mL) | 1 to 10 (≈ 0.361 to 3.61 µg/mL) | 1 to 10 (≈ 0.361 to 3.61 µg/mL) | ≤ 1 | 25 to 100 | Cc1cc(-c2[nH]c(N)nc2-c2ccc3c(c2)N(CC2CC2)CCO3)ccn1 [Example 92, 4-(4-(Cyclopropyl-methyl)-3,4-dihydro-2H-benzo[b][1,4]oxazin-6-yl)-5-(2-methylpyridin-4-yl)-1H-imidazol-2-amine] | – |
| 1 to 10 (≈ 0.385 to 3.85 µg/mL) | > 100 | ≤ 1 | > 100 | > 100 | 1 to 10 (≈ 0.385 to 3.85 µg/mL) | 1 to 10 (≈ 0.385 to 3.85 µg/mL) | 1 to 10 (≈ 0.385 to 3.85 µg/mL) | 1 to 10 (≈ 0.385 to 3.85 µg/mL) | 1 to 10 (≈ 0.385 to 3.85 µg/mL) | 1 to 10 (≈ 0.385 to 3.85 µg/mL) | 10 to 100 (≈ 3.85 to 38.5 µg/mL) | 1 to 10 (≈ 0.385 to 3.85 µg/mL) | 1 to 10 (≈ 0.385 to 3.85 µg/mL) | 1 to 10 (≈ 0.385 to 3.85 µg/mL) | > 100 | Cc1cc(-c2[nH]c(N)nc2-c2ccc3c(c2)N(S(C)(=O)=O)CCO3)ccn1 [Example 55, 5-(2-Methylpyridin-4-yl)-4-(4-(methylsulfonyl)-3,4-dihydro-2H-benzo[b][1,4]oxazin-6-yl)-1H-imidazol-2-amine] | – |
| 1 to 10 (≈ 0.326 to 3.26 µg/mL) | > 100 | ≤ 1 | > 100 | > 100 | ≤ 1 | 1 to 10 (≈ 0.326 to 3.26 µg/mL) | ≤ 1 | 1 to 10 (≈ 0.326 to 3.26 µg/mL) | 1 to 10 (≈ 0.326 to 3.26 µg/mL) | ≤ 1 | 1 to 10 (≈ 0.326 to 3.26 µg/mL) | 1 to 10 (≈ 0.326 to 3.26 µg/mL) | 1 to 10 (≈ 0.326 to 3.26 µg/mL) | ≤ 1 | > 100 | Cc1cc(-c2[nH]c(N)nc2-c2cc(F)c3c(c2)OCCO3)ccn1 [Example 56, 4-(8-fluoro-2,3-dihydrobenzo[b][1,4]dioxin-6-yl)-5-(2-methylpyridin-4-yl)-1H-imidazol-2-amine] | – |
